Assay results published in BindingDB's records for patent WO2022081842 (THE BROAD INSTITUTE, INC., 2022).

The compounds below were run against T1, Histone acetyltransferase KAT6A [507-778] (Human, UniProt Q92794) (assay: Kat6a Activity Assay).
T1 construct: 507-778
Description: Kat6a inhibitory activities of the compounds described in the present invention were quantified using a Fluorescence Resonance Energy Transfer (TR-FRET) assay which measures acetylation of a synthetic, biotinylated Histone-H4-derived peptide by the enzyme.Recombinant human His-tagged Kat6a protein (amino acids 194-810), was purified in-house from Baculovirus- infected insect cells (Sf9). Histone H4 peptide (amino acids 1-24, […]-VLRD-K(Btn)-amide), which was used as substrate, was synthesized by Biosyntan GmbH, Berlin, Germany. Acetyl Coenzyme A was purchased from Sigma-Aldrich (#A-2056).Kat6a was incubated for 60 mins at 22°C in the presence of different concentrations of test substances (0 μM, and within the range 0.01 - 20 μM) in assay buffer [25 mM Tris/HCl pH 8, 1 mM EGTA, 2.5 mM Glutathion, 0.02% Chicken Albumin, 0.05% Pluronic F127, 25 mM NaCl, 220 nM H4 peptide and 600 nM Acetyl Coenzyme A].The reaction was stopped by addition of Detection Solution (25mM HEPES pH 7.5, 0.1% BSA, 22nM SAXL665 (Cisbio #610SAXLE), 100μM Anacardic Acid (Enzo #ALX-270-381), 1nM Anti-Histone H4 (ACETYL K8) Antibody (ABCAM #AB15823) and 0.5 nM Anti-Rabbit IgG Eu (Perkin Elmer #AD0083).

T1 sequence (Q92794 whole entry): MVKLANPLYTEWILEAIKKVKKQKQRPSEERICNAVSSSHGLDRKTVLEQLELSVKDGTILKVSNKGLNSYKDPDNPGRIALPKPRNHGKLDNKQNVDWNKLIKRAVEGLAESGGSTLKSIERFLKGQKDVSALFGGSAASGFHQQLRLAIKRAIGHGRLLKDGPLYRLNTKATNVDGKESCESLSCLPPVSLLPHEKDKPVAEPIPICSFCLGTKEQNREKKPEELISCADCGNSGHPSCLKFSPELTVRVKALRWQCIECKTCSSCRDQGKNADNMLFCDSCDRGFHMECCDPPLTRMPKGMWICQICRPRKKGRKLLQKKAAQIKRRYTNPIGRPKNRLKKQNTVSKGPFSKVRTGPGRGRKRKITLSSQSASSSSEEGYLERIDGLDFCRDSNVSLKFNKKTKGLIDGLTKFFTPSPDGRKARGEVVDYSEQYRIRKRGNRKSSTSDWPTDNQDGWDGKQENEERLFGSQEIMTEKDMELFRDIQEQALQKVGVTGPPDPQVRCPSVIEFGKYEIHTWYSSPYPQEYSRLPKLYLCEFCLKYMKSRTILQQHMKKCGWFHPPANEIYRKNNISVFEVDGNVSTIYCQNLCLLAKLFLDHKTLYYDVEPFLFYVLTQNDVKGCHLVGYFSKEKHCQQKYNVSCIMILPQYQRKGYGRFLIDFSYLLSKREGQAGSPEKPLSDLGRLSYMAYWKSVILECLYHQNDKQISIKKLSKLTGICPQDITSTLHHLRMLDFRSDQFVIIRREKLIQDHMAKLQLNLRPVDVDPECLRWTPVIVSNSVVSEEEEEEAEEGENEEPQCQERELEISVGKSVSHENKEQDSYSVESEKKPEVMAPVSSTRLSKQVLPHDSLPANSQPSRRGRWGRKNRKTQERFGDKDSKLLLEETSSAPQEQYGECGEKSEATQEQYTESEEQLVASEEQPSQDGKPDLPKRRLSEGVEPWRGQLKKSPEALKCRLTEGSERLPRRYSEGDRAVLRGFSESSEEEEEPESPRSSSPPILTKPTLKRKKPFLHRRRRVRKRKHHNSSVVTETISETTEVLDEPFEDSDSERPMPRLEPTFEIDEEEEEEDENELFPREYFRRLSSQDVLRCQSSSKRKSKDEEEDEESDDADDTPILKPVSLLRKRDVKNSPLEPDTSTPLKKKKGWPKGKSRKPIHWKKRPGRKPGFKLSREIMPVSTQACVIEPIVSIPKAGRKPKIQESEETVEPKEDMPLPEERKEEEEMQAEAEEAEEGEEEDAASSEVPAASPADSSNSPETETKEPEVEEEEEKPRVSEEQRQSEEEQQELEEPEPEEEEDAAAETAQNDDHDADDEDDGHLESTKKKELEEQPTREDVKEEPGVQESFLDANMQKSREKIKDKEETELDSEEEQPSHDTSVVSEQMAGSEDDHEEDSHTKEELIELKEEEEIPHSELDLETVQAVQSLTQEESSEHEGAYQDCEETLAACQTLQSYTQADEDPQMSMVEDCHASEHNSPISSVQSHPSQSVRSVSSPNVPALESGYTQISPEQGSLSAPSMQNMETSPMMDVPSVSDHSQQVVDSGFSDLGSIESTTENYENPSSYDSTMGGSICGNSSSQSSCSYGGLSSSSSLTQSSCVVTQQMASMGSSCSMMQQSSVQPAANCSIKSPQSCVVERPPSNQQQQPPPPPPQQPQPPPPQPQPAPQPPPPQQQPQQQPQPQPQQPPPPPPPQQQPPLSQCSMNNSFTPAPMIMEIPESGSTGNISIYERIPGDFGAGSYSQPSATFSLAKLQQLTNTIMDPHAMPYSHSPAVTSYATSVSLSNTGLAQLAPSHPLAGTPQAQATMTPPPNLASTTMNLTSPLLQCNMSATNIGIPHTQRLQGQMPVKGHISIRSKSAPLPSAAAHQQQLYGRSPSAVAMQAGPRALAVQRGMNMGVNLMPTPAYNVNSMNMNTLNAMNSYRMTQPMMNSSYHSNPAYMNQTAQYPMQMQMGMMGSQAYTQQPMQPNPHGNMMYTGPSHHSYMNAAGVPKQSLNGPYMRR

SMILES | IC50
CCOc1ccccc1S(=O)(=O)NC(=O)c1cc2c(C(F)(F)F)cc(C3CC3)cc2o1 [WO2022081842, Example 51] | 26 nM
CCOc1ccccc1S(=O)(=O)NC(=O)c1cc2c(OC(F)F)cc(C3CC3)cc2o1 [WO2022081842, Example 49] | 29 nM
O=C(NS(=O)(=O)c1ccccc1-c1ccccc1)c1cc2c(F)cc(C3CC3)cc2o1 [WO2022081842, Example 38] | 17 nM
CCOc1ccccc1S(=O)(=O)NC(=O)c1cc2c(-n3ccnc3)cc(C3CC3)cc2o1 [WO2022081842, Example 58] | 40 nM

The next lines start with the values.

IC50 | SMILES
215 nM | C=C(C)c1ccc2cc(C(=O)NS(=O)(=O)c3ccccc3-c3ccccc3)oc2c1 [WO2022081842, Example 23]
611 nM | CC(C)c1ccc2cc(C(=O)NS(=O)(=O)c3ccc(Cl)cc3Cl)oc2c1 [WO2022081842, Example 57]

These compounds were tested against Histone acetyltransferase KAT6B (Human, UniProt Q8WYB5) (assay: Kat6b Activity Assay).
Description: Kat6b inhibitory activities of the compounds described in the present invention were quantified using a Fluorescence Resonance Energy Transfer (TR-FRET) assay which measures acetylation of a synthetic, biotinylated Histone-H4-derived peptide by the enzyme.Recombinant human GST-tagged Kat6b protein (431-end, N-terminal GST-tag), purified from Baculovirus- infected insect cells (Sf9), was purchased from SignalChem (#K315-381BG). Histone H4 peptide (amino acids 1-24, […]-VLRD-K(Btn)-amide), which was used as substrate, was synthesized by Biosyntan GmbH, Berlin, Germany. Acetyl Coenzyme A was purchased from Sigma-Aldrich (#A-2056). Kat6b was incubated for 30 mins at 22°C in the presence of different concentrations of test substances (0 μM, and within the range 0.01 - 20 μM) in assay buffer [25 mM Tris/HCl pH 8, 1 mM EGTA, 2.5 mM Glutathion, 0.02% Chicken Albumin, 0.05% Pluronic F127, 25 mM NaCl, 500 nM H4 peptide and 600 nM Acetyl Coenzyme A].The reaction was stopped by addition of Detection Solution (25mM HEPES pH 7.5, 0.1% BSA, 22nM SAXL665 (Cisbio #610SAXLE), 100μM Anacardic Acid (Enzo #ALX-270-381), 1nM Anti-Histone H4 (ACETYL K8) Antibody (ABCAM #AB15823), 0.5 nM Anti-Rabbit IgG Eu (Perkin Elmer #AD0083).The fluorescence emission at 620 nm and 665 nm after excitation at 330-350 nm was measured in a TR-FRET measuring instrument, for instance a Rubystar or a Pherastar (both from BMG Lab Technologies, Offenburg, Germany) or a Viewlux (Perkin-Elmer). The ratio of the emission at 665 nm and at 622 nm was used as indicator of the amount of acetylated peptide.The resulting data (ratio) were normalized, taking 0% inhibition as the mean value of control measurements where all reagents were included. In this case 50 nl DMSO were used instead of compounds. A 100% inhibition corresponded to the mean value of control measurements where all reagents except enzyme were included. IC50 values were determined by regression analysis based on a 4 parameter equation (minimum, maximum, ICM, Hill; Y = Max + (Min - Max) / (1 + (X/ICso) Hill) using the Screener Software (Genedata).

Histone acetyltransferase KAT6B, sequence (Q8WYB5 whole entry, the tested form may be a part): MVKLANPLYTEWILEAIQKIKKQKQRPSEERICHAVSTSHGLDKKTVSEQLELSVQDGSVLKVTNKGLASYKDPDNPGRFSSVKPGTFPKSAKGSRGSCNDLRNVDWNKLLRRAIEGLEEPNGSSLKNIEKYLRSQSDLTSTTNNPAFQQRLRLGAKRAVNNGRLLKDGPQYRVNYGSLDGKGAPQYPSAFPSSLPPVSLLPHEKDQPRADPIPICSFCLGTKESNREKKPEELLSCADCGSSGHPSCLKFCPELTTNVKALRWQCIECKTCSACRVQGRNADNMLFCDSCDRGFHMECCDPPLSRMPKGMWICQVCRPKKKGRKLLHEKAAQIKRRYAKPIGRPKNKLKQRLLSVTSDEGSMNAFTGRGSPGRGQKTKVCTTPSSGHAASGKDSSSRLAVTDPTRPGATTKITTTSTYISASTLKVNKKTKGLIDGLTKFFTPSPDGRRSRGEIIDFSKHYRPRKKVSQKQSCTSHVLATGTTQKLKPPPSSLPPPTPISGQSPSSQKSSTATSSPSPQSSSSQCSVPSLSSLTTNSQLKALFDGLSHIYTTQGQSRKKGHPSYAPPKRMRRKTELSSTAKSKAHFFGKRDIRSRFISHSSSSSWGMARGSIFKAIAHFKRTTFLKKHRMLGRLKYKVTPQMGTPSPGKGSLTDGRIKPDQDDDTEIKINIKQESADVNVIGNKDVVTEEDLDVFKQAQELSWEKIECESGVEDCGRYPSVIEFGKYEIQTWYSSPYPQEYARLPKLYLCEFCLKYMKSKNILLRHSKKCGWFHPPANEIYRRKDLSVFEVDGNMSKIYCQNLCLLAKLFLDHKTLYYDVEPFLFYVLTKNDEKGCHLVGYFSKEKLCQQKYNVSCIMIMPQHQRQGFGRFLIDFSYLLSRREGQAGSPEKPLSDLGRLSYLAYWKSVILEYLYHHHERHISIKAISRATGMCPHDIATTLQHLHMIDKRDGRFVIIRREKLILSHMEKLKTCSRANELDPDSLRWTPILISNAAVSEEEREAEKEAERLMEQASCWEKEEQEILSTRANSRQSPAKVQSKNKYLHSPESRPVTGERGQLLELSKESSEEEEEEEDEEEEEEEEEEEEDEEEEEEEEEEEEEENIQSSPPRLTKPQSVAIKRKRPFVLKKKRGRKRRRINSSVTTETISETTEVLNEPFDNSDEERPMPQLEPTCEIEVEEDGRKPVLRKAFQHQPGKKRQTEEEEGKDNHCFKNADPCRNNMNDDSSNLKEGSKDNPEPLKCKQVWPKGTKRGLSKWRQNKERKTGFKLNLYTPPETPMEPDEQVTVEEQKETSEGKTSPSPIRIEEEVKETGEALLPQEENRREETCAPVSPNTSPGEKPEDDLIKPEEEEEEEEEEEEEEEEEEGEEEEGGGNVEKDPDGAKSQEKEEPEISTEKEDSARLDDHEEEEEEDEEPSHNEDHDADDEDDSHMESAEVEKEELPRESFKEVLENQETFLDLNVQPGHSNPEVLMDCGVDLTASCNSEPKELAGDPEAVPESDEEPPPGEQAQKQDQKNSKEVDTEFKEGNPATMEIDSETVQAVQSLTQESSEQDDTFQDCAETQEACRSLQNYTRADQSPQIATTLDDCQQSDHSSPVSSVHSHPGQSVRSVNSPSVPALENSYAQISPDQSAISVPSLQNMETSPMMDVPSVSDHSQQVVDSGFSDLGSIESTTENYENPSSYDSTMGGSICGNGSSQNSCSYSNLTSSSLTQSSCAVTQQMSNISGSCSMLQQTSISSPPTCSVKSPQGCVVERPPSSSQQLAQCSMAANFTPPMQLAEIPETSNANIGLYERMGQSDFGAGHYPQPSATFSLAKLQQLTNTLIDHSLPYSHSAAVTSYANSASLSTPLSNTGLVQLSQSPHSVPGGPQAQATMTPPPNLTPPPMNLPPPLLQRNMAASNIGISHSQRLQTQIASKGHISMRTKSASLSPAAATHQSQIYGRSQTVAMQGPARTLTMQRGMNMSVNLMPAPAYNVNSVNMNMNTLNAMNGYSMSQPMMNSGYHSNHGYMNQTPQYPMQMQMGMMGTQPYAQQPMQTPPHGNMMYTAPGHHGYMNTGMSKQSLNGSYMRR

SMILES | IC50
O=C(O)c1ccc2cc(C(=O)NS(=O)(=O)c3ccccc3-c3ccccc3)oc2c1 [WO2022081842, Example 5] | > 20000 nM
CC(C)(C)c1ccc(OCc2ccccc2)c(S(=O)(=O)NC(=O)c2cc3c(F)cc(C4CC4)cc3o2)c1 [WO2022081842, Example 60] | 45 nM
O=C(NS(=O)(=O)c1ccccc1-c1ccccc1)c1cc2ccc(-c3cccnc3)cc2o1 [WO2022081842, Example 4] | > 20000 nM
CCOc1ccccc1S(=O)(=O)NC(=O)c1cc2c(F)cc(C3CC3)cc2o1 [WO2022081842, Example 25] | 28 nM

Second part, the compound after the results:

IC50 | SMILES
23 nM | Cc1ccc2cccc(S(=O)(=O)NC(=O)c3cc4c(F)cc(C5CC5)cc4o3)c2n1 [WO2022081842, Example 22]
155 nM | C=C(C)c1ccc2cc(C(=O)NS(=O)(=O)c3ccccc3-c3ccccc3)oc2c1 [WO2022081842, Example 23]
> 20000 nM | CN(C)C(=O)c1ccc2cc(C(=O)NS(=O)(=O)c3ccccc3-c3ccccc3)oc2c1 [WO2022081842, Example 8]
5250 nM | CC(C)c1ccc2cc(C(=O)NS(=O)(=O)c3ccc(Cl)cc3Cl)oc2c1 [WO2022081842, Example 57]
